This is an account of results in patent US20120071431A1, “Platycodin Radix Extracts, and Their Use in Treating Disease Conditions Associated with Angiogenesis” (priority 2010, published 2012).

Assay [1] concerns angiogenesis in human fat tissue. As to the kind of experiment: human fat tissue angiogenesis assay (substance added to the media). The format is cell-based. The procedure: The above extracts of platycodin, both PS and PD, were assayed for antiangiogenic activity using the human fat angiogenesis assay of Greenway et al. (2007).
Study 1: An aqueous extract of Platycodi radix saponins at 1% w/v was tested in our human adipose tissue assay. Briefly, subcutaneous adipose tissue was removed from patients undergoing cosmetic surgical procedures. The fat was placed directly into sterile assay media, transported directly to the laboratory from the surgery suite in the sterile container and processed under a laminar flow hood. The tissue was cut into fragments approximately 1 mm thick and 2 mm in diameter. These fragments were placed in 96-well plates containing a 4 μL human thrombin solution (0.05 IU in 4 μL per well) and covered with 100 μL clotting media (3 mg/mL fibrinogen; Sigma Chemical Co., St Louis, Mo., USA), 0.5% ε-amino caproic acid (Sigma Chemical Co.) in angiogenesis media containing 100 U/mL penicillin, 100 U/mL streptomycin sulfate and 2.5 μg/mL amphotericin β in Medium 199 (Gibco BRL, Gaithersburg, Md., USA). The mixture was allowed to clot by incubation in 6% CO2 at 37° C. in a humidified incubator. After the media had gelled overnight, the fat-containing clot was supplemented with 100 μL angiogenesis media containing 20% fetal bovine serum (Gibco BRL). The total volume of each well was 200 μL. There were 30 replicates for the 1% w/v Platycodi radix saponins and the media control. The angiogenesis media were replaced every 48 h and appropriate concentrations of fresh Platycodi radix saponins or media control were added. Wells were evaluated for the angiogenic response as described by Greenway et al. (2007). An observer unbiased to the treatment protocols evaluated the angiogenic response using a semi-quantitative visual rating scale. Briefly, the tissue was viewed under an inverted microscope, visually divided into four quadrants and each quadrant was given a numeric score from 0 to 4 based on the neovessels' length, density, and percentage of the quadrants' circumference involved with the angiogenic response. Numeric results from the four quadrants were summed and expressed as an angiogenic index ranging from 0 (no neovessels apparent in any quadrant) to 16 (highly vascularized in all four quadrants). The extract of Platycodi radix saponins at 1% w/v was tested, followed by Platycodin D, and finally by the Platycodi radix saponins standardized to the Platycodin D content.

Assay [2] addresses T1, pancreatic lipase (Homo sapiens, UniProt P16233).
T1 sequence (P16233 17-465): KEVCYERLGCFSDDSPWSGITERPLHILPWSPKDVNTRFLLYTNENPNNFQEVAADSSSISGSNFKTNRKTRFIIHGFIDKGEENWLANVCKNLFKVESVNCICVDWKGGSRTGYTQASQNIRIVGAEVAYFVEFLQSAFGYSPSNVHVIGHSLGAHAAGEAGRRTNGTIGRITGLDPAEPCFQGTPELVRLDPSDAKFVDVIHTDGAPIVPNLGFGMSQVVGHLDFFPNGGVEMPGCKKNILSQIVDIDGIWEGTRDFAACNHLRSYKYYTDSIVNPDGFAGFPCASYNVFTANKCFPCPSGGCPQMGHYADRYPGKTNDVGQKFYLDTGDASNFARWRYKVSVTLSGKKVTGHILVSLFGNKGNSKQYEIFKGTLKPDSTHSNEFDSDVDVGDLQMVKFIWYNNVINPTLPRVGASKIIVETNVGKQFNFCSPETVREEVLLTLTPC
The conditions noted are these: cited from earlier work.

Entries after “also recorded” stand apart in the source; their conditions may differ.

For `C[C@@H]1O[C@@H](O[C@H]2[C@H](OC(=O)[C@]34CCC(C)(C)C[C@H]3C3=CC[C@@H]5[C@@]6(C)C[C@H](O)[C@H](O[C@@H]7O[C@H](CO)[C@@H](O)[C@H](O)[C@H]7O)C(CO)(CO)[C@@H]6CC[C@@]5(C)[C@]3(C)C[C@H]4O)OC[C@H](O)[C@@H]2O)[C@H](O)[C@H](O)[C@H]1O[C@@H]1OC[C@@H](O)[C@H](O[C@@H]2OC[C@](O)(CO)[C@H]2O)[C@H]1O` [PD, platycodin D], the “inhibition of angiogenesis (angiogenic index)” value in assay [1] (10^-4 M (concentration of platycodin D) and higher) was “complete inhibition of angiogenesis”. In addition, the inhibition of angiogenesis entry is on record as “partial inhibition” in assay [1] (10^-5 M, difference not statistically significant); “inhibited angiogenesis; also recorded: inhibitors of angiogenesis” in assay [1] (concentration not given); “totally inhibited angiogenesis” in assay [1] (concentrations above 10^-4 M); “did not inhibit angiogenesis” in assay [1] (concentrations below 10^-4 M). Besides, in assay [2], the “inhibition of pancreatic lipase” value is given as “inhibit pancreatic lipase”.
